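Assay format: 96-well plates, 48-hour exposure. Abbreviation: GI50, concentration required for 50% inhibition of growth.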 The source made the active and inactive calls. Cut-off read from the data, not from the text of the source: active = GI50 up to about 1.1 µM and inactive = higher.
Key:
Experiment in all cases: NCI-60 cell line screen, 48 h
TK-10 = test system: TK-10
HOP-62 = test system: HOP-62
K562 = test system: K562
A549 = test system: A549
SK-MEL-2 = test system: SK-MEL-2
SW-620 = test system: SW-620
NCI-H522 = test system: NCI-H522
HCT-116 = test system: HCT-116
IGROV-1 = test system: IGROV-1
EKVX = test system: EKVX
ACHN = test system: ACHN
RXF 393 = test system: RXF 393
UACC-62 = test system: UACC-62
A498 = test system: A498
LOX IMVI = test system: LOX IMVI
Malme-3M = test system: Malme-3M
SF-295 = test system: SF-295
UO-31 = test system: UO-31
SNB-75 = test system: SNB-75
CAKI-1 = test system: CAKI-1
NCI-H460 = test system: NCI-H460
SF-539 = test system: SF-539
LXFL 529 = test system: LXFL 529
HCC 2998 = test system: HCC 2998
OVCAR-4 = test system: OVCAR-4
SNB-19 = test system: SNB-19
SK-MEL-28 = test system: SK-MEL-28
786-0 = test system: 786-0
SK-MEL-5 = test system: SK-MEL-5
XF498 = test system: XF498
DMS-273 = test system: DMS-273
HCT-15 = test system: HCT-15
U-251 = test system: U-251
NCI-H23 = test system: NCI-H23
COLO 205 = test system: COLO 205
UACC-257 = test system: UACC-257
HOP-92 = test system: HOP-92
HOP-18 = test system: HOP-18
KM-20L2 = test system: KM-20L2
KM12 = test system: KM12
SF-268 = test system: SF-268
NCI-H226 = test system: NCI-H226
SN12C = test system: SN12C
OVCAR-5 = test system: OVCAR-5
OVCAR-3 = test system: OVCAR-3
RXF 631 = test system: RXF 631
SK-OV-3 = test system: SK-OV-3
CCRF-CEM = test system: CCRF-CEM
HT-29 = test system: HT-29
RPMI-8226 = test system: RPMI-8226
DMS-114 = test system: DMS-114
M14 = test system: M14
DLD-1 = test system: DLD-1
MOLT-4 = test system: MOLT-4
HL-60 = test system: HL-60
OVCAR-8 = test system: OVCAR-8
SR = test system: SR
SNB-78 = test system: SNB-78
M19-MEL = test system: M19-MEL

SMILES: N#CC12C3C4CC5C6C4C1C6C(O)(C53)N2Cc1ccccc1 (configuration not stated)
- GI50 (TK-10): > 100 µM (inactive)
- GI50 (HOP-62): > 100 µM (inactive)
- GI50 (K562): > 100 µM (inactive)
- GI50 (A549): > 100 µM (inactive)
- GI50 (SK-MEL-2): > 100 µM (inactive)
- GI50 (SW-620): > 100 µM (inactive)
- GI50 (NCI-H522): > 100 µM (inactive)
- GI50 (HCT-116): > 100 µM (inactive)
- GI50 (IGROV-1): > 100 µM (inactive)
- GI50 (EKVX): > 100 µM (inactive)
- GI50 (ACHN): > 100 µM (inactive)
- GI50 (RXF 393): > 100 µM (inactive)
- GI50 (UACC-62): > 100 µM (inactive)
- GI50 (A498): > 100 µM (inactive)
- GI50 (LOX IMVI): > 100 µM (inactive)
- GI50 (Malme-3M): > 100 µM (inactive)
- GI50 (SF-295): > 100 µM (inactive)
- GI50 (UO-31): > 100 µM (inactive)
- GI50 (SNB-75): > 100 µM (inactive)
- GI50 (CAKI-1): > 100 µM (inactive)
- GI50 (NCI-H460): > 100 µM (inactive)
- GI50 (SF-539): > 100 µM (inactive)
- GI50 (LXFL 529): > 100 µM (inactive)
- GI50 (HCC 2998): > 100 µM (inactive)
- GI50 (OVCAR-4): > 100 µM (inactive)
- GI50 (SNB-19): > 100 µM (inactive)
- GI50 (SK-MEL-28): > 100 µM (inactive)
- GI50 (786-0): > 100 µM (inactive)
- GI50 (SK-MEL-5): > 100 µM (inactive)
- GI50 (XF498): > 100 µM (inactive)
- GI50 (DMS-273): > 100 µM (inactive)
- GI50 (HCT-15): > 100 µM
- GI50 (U-251): > 100 µM (inactive)
- GI50 (NCI-H23): > 100 µM (inactive)
- GI50 (COLO 205): > 100 µM (inactive)
- GI50 (UACC-257): > 100 µM (inactive)
- GI50 (HOP-92): > 100 µM (inactive)
- GI50 (HOP-18): > 100 µM (inactive)
- GI50 (KM-20L2): > 100 µM (inactive)
- GI50 (KM12): > 100 µM (inactive)
- GI50 (SF-268): > 100 µM (inactive)
- GI50 (NCI-H226): > 100 µM (inactive)
- GI50 (SN12C): > 100 µM (inactive)
- GI50 (OVCAR-5): > 100 µM (inactive)
- GI50 (OVCAR-3): > 100 µM (inactive)
- GI50 (RXF 631): > 100 µM (inactive)
- GI50 (SK-OV-3): > 100 µM (inactive)
- GI50 (CCRF-CEM): > 100 µM (inactive)
- GI50 (HT-29): > 100 µM (inactive)
- GI50 (RPMI-8226): > 100 µM (inactive)
- GI50 (DMS-114): > 100 µM (inactive)
- GI50 (M14): > 100 µM (inactive)
- GI50 (DLD-1): > 100 µM (inactive)
- GI50 (MOLT-4): > 100 µM (inactive)
- GI50 (HL-60): > 100 µM (inactive)
- GI50 (OVCAR-8): > 100 µM (inactive)
- GI50 (SR): > 100 µM (inactive)

SMILES: COc1cc2c(c(OC)c1OC)-c1ccc(SC)c(=O)cc1[C@@H](NCc1ccc(F)cc1)CC2
- GI50 (TK-10): 12.3 µM (inactive)
- GI50 (HOP-62): < 0.0075 µM (active)
- GI50 (K562): < 0.0075 µM (active)
- GI50 (A549): < 0.0075 µM (active)
- GI50 (SK-MEL-2): < 0.0075 µM (active)
- GI50 (SW-620): < 0.0075 µM (active)
- GI50 (NCI-H522): < 0.0075 µM (active)
- GI50 (HCT-116): < 0.0075 µM (active)
- GI50 (IGROV-1): < 0.0075 µM (active)
- GI50 (EKVX): 0.0693 µM (active)
- GI50 (ACHN): < 0.0075 µM (active)
- GI50 (RXF 393): < 0.0075 µM (active)
- GI50 (UACC-62): < 0.0075 µM (active)
- GI50 (A498): < 0.0075 µM (active)
- GI50 (LOX IMVI): < 0.0075 µM (active)
- GI50 (Malme-3M): < 0.0075 µM (active)
- GI50 (SF-295): < 0.0075 µM (active)
- GI50 (UO-31): 1.03 µM (active)
- GI50 (SNB-75): 12.7 µM (inactive)
- GI50 (CAKI-1): 1.69 µM (inactive)
- GI50 (SNB-78): < 0.0075 µM (active)
- GI50 (NCI-H460): < 0.0075 µM (active)
- GI50 (SF-539): < 0.0075 µM (active)
- GI50 (LXFL 529): < 0.0075 µM (active)
- GI50 (HCC 2998): < 0.0075 µM (active)
- GI50 (OVCAR-4): 11.6 µM (inactive)
- GI50 (SNB-19): < 0.0075 µM (active)
- GI50 (SK-MEL-28): 8.77 µM (inactive)
- GI50 (786-0): < 0.0075 µM (active)
- GI50 (SK-MEL-5): < 0.0075 µM (active)
- GI50 (XF498): < 0.0075 µM (active)
- GI50 (DMS-273): < 0.0075 µM (active)
- GI50 (HCT-15): < 0.0075 µM
- GI50 (U-251): < 0.0075 µM (active)
- GI50 (NCI-H23): < 0.0075 µM (active)
- GI50 (COLO 205): < 0.0075 µM (active)
- GI50 (UACC-257): 0.0117 µM (active)
- GI50 (HOP-92): < 0.0075 µM (active)
- GI50 (HOP-18): 9.1 µM (inactive)
- GI50 (KM-20L2): < 0.0075 µM (active)
- GI50 (KM12): < 0.0075 µM (active)
- GI50 (SF-268): < 0.0075 µM (active)
- GI50 (NCI-H226): < 0.0075 µM (active)
- GI50 (SN12C): < 0.0075 µM (active)
- GI50 (OVCAR-5): 2.54 µM (inactive)
- GI50 (OVCAR-3): < 0.0075 µM (active)
- GI50 (RXF 631): < 0.0075 µM (active)
- GI50 (SK-OV-3): < 0.0075 µM (active)
- GI50 (CCRF-CEM): < 0.0075 µM (active)
- GI50 (HT-29): < 0.0075 µM (active)
- GI50 (RPMI-8226): < 0.0075 µM (active)
- GI50 (M14): < 0.0075 µM (active)
- GI50 (DLD-1): < 0.0075 µM (active)
- GI50 (MOLT-4): < 0.0075 µM (active)
- GI50 (HL-60): 0.1 µM (active)
- GI50 (OVCAR-8): < 0.0075 µM (active)
- GI50 (SR): < 0.0075 µM (active)

SMILES: c1ccc(OC2=NC3=S(S2)SC(Oc2ccccc2)=N3)cc1
- GI50 (TK-10): 17.8 µM (inactive)
- GI50 (HOP-62): 26.2 µM (inactive)
- GI50 (K562): 16.5 µM (inactive)
- GI50 (A549): 21.6 µM (inactive)
- GI50 (SK-MEL-2): 13.6 µM (inactive)
- GI50 (SW-620): 15 µM (inactive)
- GI50 (NCI-H522): 16.4 µM (inactive)
- GI50 (HCT-116): 17.5 µM (inactive)
- GI50 (IGROV-1): 20.8 µM (inactive)
- GI50 (EKVX): 21.5 µM (inactive)
- GI50 (ACHN): 19.2 µM (inactive)
- GI50 (RXF 393): 6.01 µM (inactive)
- GI50 (UACC-62): 18.9 µM (inactive)
- GI50 (A498): 25.1 µM (inactive)
- GI50 (LOX IMVI): 19.6 µM (inactive)
- GI50 (Malme-3M): 18.3 µM (inactive)
- GI50 (SF-295): 17 µM (inactive)
- GI50 (UO-31): 18.1 µM (inactive)
- GI50 (SNB-75): 24.3 µM (inactive)
- GI50 (CAKI-1): 17.7 µM (inactive)
- GI50 (SNB-78): 20.5 µM (inactive)
- GI50 (NCI-H460): 30.2 µM (inactive)
- GI50 (SF-539): 22.3 µM (inactive)
- GI50 (HCC 2998): 19.5 µM (inactive)
- GI50 (SNB-19): 20.4 µM (inactive)
- GI50 (786-0): 15.5 µM (inactive)
- GI50 (SK-MEL-5): 18 µM (inactive)
- GI50 (XF498): 15.7 µM (inactive)
- GI50 (DMS-273): 25.8 µM (inactive)
- GI50 (HCT-15): 18.9 µM
- GI50 (U-251): 11.2 µM (inactive)
- GI50 (NCI-H23): 21.3 µM (inactive)
- GI50 (COLO 205): 17.9 µM (inactive)
- GI50 (UACC-257): 16.7 µM (inactive)
- GI50 (KM-20L2): 22.3 µM (inactive)
- GI50 (KM12): 16.9 µM (inactive)
- GI50 (SF-268): 21.7 µM (inactive)
- GI50 (NCI-H226): 24.3 µM (inactive)
- GI50 (SN12C): 20.6 µM (inactive)
- GI50 (OVCAR-5): 20.5 µM (inactive)
- GI50 (OVCAR-3): 14.5 µM (inactive)
- GI50 (RXF 631): 25.1 µM (inactive)
- GI50 (SK-OV-3): 28.2 µM (inactive)
- GI50 (CCRF-CEM): 9.59 µM (inactive)
- GI50 (HT-29): 21.4 µM (inactive)
- GI50 (M19-MEL): 17.8 µM (inactive)
- GI50 (RPMI-8226): 4.83 µM (inactive)
- GI50 (DMS-114): 19.9 µM (inactive)
- GI50 (M14): 18.4 µM (inactive)
- GI50 (DLD-1): 16.5 µM (inactive)
- GI50 (MOLT-4): 9.98 µM (inactive)
- GI50 (HL-60): 16.8 µM (inactive)
- GI50 (OVCAR-8): 22.2 µM (inactive)

From ChEMBL document CHEMBL1201862, “PubChem BioAssay data set” (2004)
